In patent US11912693B2, “Compounds for modulating S1P1 activity and methods of using the same” (TREVENA, INC., priority 2017, dated 2024):

Legend:
[1] = biological target: T1, human sphingosine-1-phosphate receptor 1 (S1P1) (Homo sapiens (Human), UniProt P21453); experiment: Inhibition of cAMP production (HTRF cAMP HiRange), S1P1 CHO-K1 cells; format: cell-based; settings: for hS1P1 cAMP pEC50: inhibition of cAMP production, S1P1 CHO-K1 cells
Outline: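 CHO-K1 cells stably co-expressing human S1P1 (C-terminal Prolink tag) and EA-β-arrestin2 were grown in AssayComplete Media 6 at 37° C. and 5% CO2, plated, and incubated overnight. Agonist-driven inhibition of intracellular cAMP was read by TR-FRET with the HTRF cAMP HiRange kit on a PheraStar reader. Potency is pEC50, and efficacy (SPAN) is normalized to fingolimod.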
Target sequence in this assay (P21453 whole entry, looked up): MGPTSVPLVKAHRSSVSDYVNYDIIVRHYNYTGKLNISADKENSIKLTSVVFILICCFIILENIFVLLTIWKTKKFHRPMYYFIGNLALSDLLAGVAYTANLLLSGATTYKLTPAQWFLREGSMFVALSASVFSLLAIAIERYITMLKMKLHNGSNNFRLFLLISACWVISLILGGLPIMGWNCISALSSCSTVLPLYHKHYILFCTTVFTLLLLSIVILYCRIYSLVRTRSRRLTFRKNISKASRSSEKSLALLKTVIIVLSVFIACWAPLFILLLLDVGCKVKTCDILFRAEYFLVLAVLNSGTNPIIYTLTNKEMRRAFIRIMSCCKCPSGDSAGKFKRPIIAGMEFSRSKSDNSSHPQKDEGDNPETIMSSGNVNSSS

[2] = biological target: T1, human sphingosine-1-phosphate receptor 1 (S1P1); experiment: β-Arrestin2 recruitment assay (PathHunter), S1P1 CHO-K1 cells; format: cell-based; settings: for hS1P1 B-arrestin2 pEC50: β-arrestin2 recruitment, S1P1 CHO-K1 cells
Outline: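 Enzyme-fragment complementation read-out: agonist-driven β-arrestin2 binding to ProLink-tagged human S1P1 in stable CHO-K1 cells restores β-galactosidase, measured 1 h at room temperature after a 60 min 37° C. compound incubation. Potency as pEC50, efficacy relative to fingolimod (SPAN).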
Target sequence in this assay (P21453 whole entry, looked up): as above
Target sequence in this assay (P32121 whole entry partner, looked up): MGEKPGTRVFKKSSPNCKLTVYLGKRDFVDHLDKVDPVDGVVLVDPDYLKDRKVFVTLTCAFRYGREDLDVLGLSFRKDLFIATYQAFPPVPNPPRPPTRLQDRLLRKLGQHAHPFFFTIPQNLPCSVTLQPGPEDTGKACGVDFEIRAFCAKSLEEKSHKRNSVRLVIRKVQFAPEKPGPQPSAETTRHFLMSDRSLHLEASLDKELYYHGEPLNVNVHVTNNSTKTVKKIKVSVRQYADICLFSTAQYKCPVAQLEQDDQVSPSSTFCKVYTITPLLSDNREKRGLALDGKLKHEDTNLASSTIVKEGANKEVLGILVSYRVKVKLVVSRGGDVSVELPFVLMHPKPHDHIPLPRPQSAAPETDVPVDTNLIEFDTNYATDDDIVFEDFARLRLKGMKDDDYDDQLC

[3] = test system: oxaliplatin induced peripheral neuropathy; experiment: Reversal of allodynia induced by oxaliplatin in mice (von Frey frequency method); format: in vivo, c57bl/6 mice; settings: tested 30 min after dosing
Description: Compounds were tested for efficacy in mouse models of chemotherapy induced peripheral neuropathy. […] For these studies […]/6 mice are habituated to the test environment and baseline measurements of pain sensitivity are assessed. To determine mechanical responses, the threshold for responses to punctate mechanical stimuli (mechanical hyperalgesia) was tested according to the frequency method. In brief, the plantar surface of the animal hindpaw was stimulated with a single von Frey monofilament (0.4 g) for approximately 1-2 seconds. If there was a withdrawal response, it was recorded as a positive response. A response was defined as a lifting or shaking of the paw upon stimulation. This was repeated ten times for each mouse. The final measurement for each mouse is the % non-response to stimulation for the ten trials. The % non-response to stimulation is converted to a % MPE. For paclitaxel induced peripheral neuropathy, a series of injections of PAC (6 mg/kg, i.p.) on days 1, 3, 5 and 7 is used to induce peripheral neuropathy. After approximately 14 days from the initiation of PAC injections, animals are re-assessed for mechanical sensitivity. […] On test day animals are dosed with compounds either subcutaneously or orally and tested for mechanical response by the frequency method either 30 min (s.c.) or 60 min (p.o.) after drug administration. Data is presented as a % MPE. For oxaliplatin induced peripheral neuropathy, a series of injections of OXA (4 mg/kg, i.p.) on days 1-5 is used to induce peripheral neuropathy. After approximately 14 days from the initiation of PAC injections, animals are re-assessed for mechanical sensitivity. […] On test day animals are dosed with compounds subcutaneously and tested for mechanical response by the frequency method 30 min after drug administration. Data is presented as a % MPE. One or more of the compounds show reversal of chemotherapeutic induced peripheral neuropathy.

[4] = test system: paclitaxel induced peripheral neuropathy; experiment: Reversal of allodynia induced by paclitaxel in mice (s.c. or p.o., von Frey frequency method); format: in vivo, c57bl/6 mice; settings: Mus musculus; for inhibition in vivo at 1 mg/kg: sc, 0.5 h, 1 mg/kg s.c., tested 30 min after dosing, read-out: Screen @ 1 mg/kg sc (% MPE)
Outline: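 Neuropathy was induced in mice by paclitaxel (6 mg/kg i.p., days 1, 3, 5, 7) or oxaliplatin (4 mg/kg i.p., days 1-5), with re-testing about 14 days later. Compounds were given s.c. (tested at 30 min) or p.o. (tested at 60 min; paclitaxel only). A 0.4 g von Frey filament was applied ten times per paw, and % non-response was converted to % MPE.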

[5] = test system: peripheral blood lymphocytes; experiment: Peripheral blood lymphocytes (lymphopenia) in c57bl/6 mice, acute and chronic studies; format: in vivo; settings: peripheral blood lymphocytes vs vehicle; 6 mg/kg sc, 7 days
Description: Compounds were tested for changes in peripheral blood lymphocytes in c57bl/6 mice. In acute studies, animals (n=5/group) were dosed subcutaneously with test compound at a dose of 3 mg/kg. Animals were sacrificed at specific time points and 500 μl of whole blood was collected in EDTA (K2) Eppendorf tubes. Blood was stored on ice and shipped immediately overnight delivery to Charles River Laboratories for analysis. CRL ran samples through their WBC/differential panel on an Advia 120 instrument. We received peripheral lymphocyte counts (10^3 cells/μl) for each blood sample. Treatment group means were compared to a vehicle treatment group for statistical significance. In chronic studies, animals (n=6-8/group) were dosed subcutaneously with test compound either in a dose response paradigm (highest dose of 3 mg/kg) or in a screening paradigm at 6 mg/kg for seven days. On the seventh day, animals were sacrificed 45 minutes after the final dose. Whole blood was collected and analyzed as described for acute studies. […]

[6] = test system: Freund's Complete Adjuvant induced inflammation / mechanical allodynia; experiment: Tactile allodynia produced by intraplantar Freund's Complete Adjuvant in rats (Randall-Selitto); format: in vivo, rat; settings: CFA model, 24 hours after CFA
Description: Animals were acclimated to the vivarium for at least 48 hr prior to behavioral testing. Inflammation was induced with the administration of an intraplantar (subcutaneous injection into the plantar surface of the hind paw, i.pl.) injection of 0.10 ml Freund's Complete Adjuvant (FCA). The experiments were conducted 24 hours after CFA administration. Rats are tested for mechanical allodynia in a Randall-Selitto apparatus. The inflamed paw is put on a pedestal and a pointed force of increasing intensity (0 to 250 grams) is applied to the paw. When the animal struggles to withdraw from the force the test is stopped and the force to induce that struggle is recorded. Data is presented as mean grams of force to withdrawal or a percentage of the maximum possible effect.

| hS1P1 cAMP pEC50 [1] | hS1P1 B-arrestin2 pEC50 [2] | Lymphopenia: Effect and Doses, mg/kg, sc [5] | Emax ([1]; CHO-K1, efficacy (SPAN) normalized to fingolimod, read-out: hS1P1 cAMP SPAN) [%] | Emax ([2]; CHO-K1, efficacy (SPAN) normalized to fingolimod, read-out: hS1P1 B-arrestin2 SPAN) [%] | Compound | Screen @ 3 mg/kg sc (% MPE) [3] [% MPE] | inhibition in vivo at 1 mg/kg [4] [%] | inhibition in vivo at 3 mg/kg ([4]; po, 1 h, 3 mg/kg p.o., tested 60 min after dosing, read-out: Screen @ 3 mg/kg po (% MPE)) [%] | Active Doses, mg/kg sc (>50% MPE) [6] [mg/kg] |
| --- | --- | --- | --- | --- | --- | --- | --- | --- | --- |
| >6.5 | >5 | no change: 6 mg/kg, 7 days |  |  | COc1ccc(-c2noc(-c3ccc4c(c3)nnn4C(C)C)n2)c(C)c1 [Compound 55, 5-(1-isopropyl-1H-benzo[d][1,2,3]triazol-5-yl)-3-(4-methoxy-2-methylphenyl)-1,2,4-oxadiazole] | >50 | < 50 |  |  |
| >6.5 | >5 | no change: 6 mg/kg, 7 days | > 75 | > 75 | Cc1cnccc1-c1nc(-c2ccc3c(ccn3C(C)C)c2)no1 [Compound 142, 3-(1-isopropyl-1H-indol-5-yl)-5-(3-methylpyridin-4-yl)-1,2,4-oxadiazole] | >50 | > 50 | > 50 | ≥0.1 |
| >6.5 | >5 | no change: 6 mg/kg, 7 days |  |  | Cc1ccsc1-c1noc(-c2ccc3c(c2)nnn3C(C)C)n1 [Compound 169, 5-[3-(3-methylthiophen-2-yl)-1,2,4-oxadiazol-5-yl]-1-(propan-2-yl)-1H-1,2,3-benzotriazole] | >50 | > 50 |  |  |
